The values below are quoted from earlier work in patent US20260335319A1, “INJECTABLE COMPOSITIONS OF METOLAZONE” (CIPLA LIMITED, priority 2023, published 2026).

Like-named read-outs stand apart in the source and are kept apart here.

For series [1] the following is noted: relative to water.

Turning to `Cc1ccccc1N1C(=O)c2cc(S(N)(=O)=O)c(Cl)cc2NC1C` (centres unmarked) [Metolazone, 7-chloro-1,2,3,4-tetrahydro-2-methyl-3-(2-methylphenyl)-4-oxo-6-quinazolinesulfonamide], the “solubility in alkali and organic solvents” value in series [1] was “more soluble in alkali, and organic solvents”. Further, where the note is “metolazone, general”, the absorption entry was “variable absorption” and the bioavailability result is on record as “poor bioavailability”. Under “oral immediate release tablet”, the absorption entry is “erratic absorption” and the bioavailability entry is “variable bioavailability”.
